Results reported in patent publication US11071835B2, “Inhalable medicaments” (PHARMACHEMIE B.V., priority 2013, dated 2021).
Counter-ions that a name gives are not always drawn.

Conditions: batch B (formoterol 7544MO) versus batch A (formoterol 7544MA); 160/4.5 μg product; same inhaler, budesonide and lactose
Experimental: A pharmacokinetic (PK) clinical study was conducted. The PK study assessed a number of key formulation parameters, metered dose (device dose cup volume), formulation blend strength, drug substance particle size and lactose particle size, using a stepwise approach. The PK study was carried out on the middle strength product (160/4.5 μg). […] For both batch A and batch B, the inhaler, the budesonide and the lactose were the same.

COc1ccc(CC(C)NCC(O)c2ccc(O)c(NC=O)c2)cc1 (stereo not shown) [7544MO, formoterol fumarate dihydrate]
lowering of formoterol Cmax: more than 20%
